# US10765655B2, “Composition containing monoacetyldiglyceride compound as active ingredient for preventing or treating chronic obstructive pulmonary disease” (ENZYCHEM LIFESCIENCES CORPORATION, priority 2013, dated 2020)
# Marks after values point to notes of the source that are not given here.
# Columns and labels:
# [1] = GLP toxicity test; cited from earlier work
# CD4+ cells = assay: COPD mouse model: CD4+ cells in BAL by flow cytometry; assay type: in vivo, BALB/c mice; conditions: for CD4^+ cells (10^4): BAL cells; for % inhibition of CD4^+ cells: vs COPD group
# Protocol: (§1) To make COPD mouse models, 8-week-old male BALB/c mice were anesthetized with 7% chloral hydrate, and then intratracheally inhaled with 100 μl of a 1:1 mixture of 100 μg/ml of LPS and 4 mg/ml, of standard cigarette smoking (CS) extract (LPS+CS mixture) once a week for 3 weeks. […] EC-18 was dissolved in 0.5% CMC (carboxmethylcellulose sodium) to concentrations of 30 mg/kg and 60 mg/kg, and administered orally to the mice at 1 hour before intratracheal inhalation of 100 μl of the PS+CS mixture. The mice were divided into: (i) an untreated normal group (intact); (ii) a control group treated with LPS+CS (COPD-control); (iii) a test group administered orally with 30 mg/kg of EC-18 at 1 hour before treatment with LPS+CS; and (iv) a test group administered orally with 60 mg/kg of EC-18 at 1 hour before treatment with the LPS+CS mixture. After completion of the experiment, blood, bronchoalveolar lavage fluid and lung tissue were isolated from the mice of each of the groups.
# (§2) The separated BAL cells were adjusted to 5×10^5 cells, and then subjected to immunofluorescence staining at 4° C. PE-anti-CD4 (553047, BD Pharmingen) and PE-anti-Gr-1 (553128, BD Pharmingen) were added to the cells which were then incubated on ice for 30 minutes. After incubation, the cells were washed three times or more with phosphate buffered saline, and then the frequency of CD4^+ cells and Gr-1^+ neutrophils was analyzed using the Cell Quest program (643274, BD Biosciences) of a flow cytometer. Next, based on total cells, the absolute number of cells in each tissue was calculated.
# TNF-α = assay: COPD mouse model: TNF-α in bronchoalveolar lavage fluid by ELISA; assay type: in vivo, BALB/c mice; conditions: for TNF-α: BALF; for % inhibition of TNF-α: vs COPD group
# Protocol: as §1
# (§3) The levels of CXCL-1, TNF-α and MIP-2 in the bronchoalveolar lavage isolated from the mice were measured by an enzyme-linked immunosorbent assay (ELISA). An antibody specific for each of CXCL-1, TNF-α and MIP-2 was diluted in coating buffer (291195, R&D System), coated on microwells, and then incubated overnight at 4° C. Each well was washed three times with washing buffer, and then 100 μl of serum (10-fold diluted) was added to each well. Each well was allowed to stand at room temperature for 1 hour, and then washed twice with washing buffer antibody, after which each well was treated with 100 μl of avidin-conjugated HRP (DY998, R&D System) and allowed to stand at room temperature for 1 hour, followed by washing. 100 μl of a TMB substrate was added to each well which was then allowed to stand in a dark room for 30 minutes and treated with 50 μl of a stop solution. Next, the absorbance at 450 nm was measured using an ELISA reader (Emax, Molecular Devices), and the percent inhibition of expression was calculated.
# Gr-1+ neutrophils = assay: COPD mouse model: Gr-1+ neutrophils in BAL by flow cytometry; assay type: in vivo, BALB/c mice; conditions: for Gr-1^+ neutrophils (10^4): BAL cells; for % inhibition of Gr-1^+ neutrophils: vs COPD group
# Protocol: as §1, §2
# CXCL-1 = assay: COPD mouse model: CXCL-1 in bronchoalveolar lavage fluid by ELISA; assay type: in vivo, BALB/c mice; conditions: for CXCL-1: BALF; for % inhibition of CXCL-1: vs COPD group
# Protocol: as §1, §3
# IL-4 mRNA = assay: Inhibition of PMA-induced IL-4 mRNA expression in EL-4 cells (PCR); assay type: cell-based, mouse; conditions: 20 μg/mL, PMA 1 ng/mL; for Inhibition (%) of IL-4 mRNA expression: vs PMA-treated group
# Protocol: Based on the results of Example 1, each of the monoacetyldiacylglycerol compounds was added to EL-4 cells at a concentration of 20 μg/mL, and the effect thereof on the inhibition of PMA-induced expression of IL-4 mRNA in the EL-4 cells was measured. Specifically, the expression level of IL-4 mRNA induced by PMA (1 ng/mL) was measured using real-time polymerase chain reaction (real-time PCR) and quantitative real time polymerase chain reaction (qPCR). For cell preparation, EL-4 cells were seeded into a 6-well plate at a concentration of 1×10^6 cells/well and cultured for 12 hours, after which the cells were treated with each of the monoacetyldiacylglycerol compounds at a concentration of 20 μg/mL for 1 hour and treated with PMA at a concentration of 1 ng/m, followed by culture for 12 hours. Total RNA was extracted from the cells using Trizol B (Invitrogen, USA) and quantified, and then cDNA was synthesized from the total RNA using an Omniscript RT kit (Qiagen, GmbH, Hilden, Germany). The synthesized cDNA as a template was mixed with each of the IL-4 and GAPDH primers shown in Table 2 below and was subjected to PCR using a PCR mix (PCR Master Mix, Bioneer, Korea) under the following conditions: denaturation at 94° C. for 5 minutes; and then 30 cycles, each consisting of 30 sec at 95° C., 45 sec at 60° C., and 45 sec at 72° C.; followed by enzyme inactivation at 72° C. for 10 minutes. The results of measuring the percent inhibition of expression of IL-4 mRNA in EL-4 cells as described above are shown in Table 3 below. The designation of each of the samples shown in Table 3 below is as described with respect to Table above.
# sepsis animal model = conditions: cecal-ligation-puncture; cited from earlier work
# [2] = test system: neutrophils in bronchoalveolar lavage fluid; assay: COPD mouse model (LPS+CS): neutrophil count in bronchoalveolar lavage fluid; assay type: in vivo, BALB/c mice; conditions: BALF; for % inhibition of neutrophil: vs COPD group
# Protocol: as §1
# (§4) After blood collection, the mice were dissected. To isolate cells from the bronchoalveolar lavage fluid (BALF), a syringe containing 1 ml of FBS-free DMEM medium was injected into the trachea and fixed with a string, and then cells were separated by performing circulation three times and were treated with ACK solution at 37° C. for 5 minutes to lyse red blood cells. Next, the cells were washed with FBS-free DMEM medium and then stained with 0.04% trypan blue, after which the number of total cells was measured.
# MIP-2 = assay: COPD mouse model: MIP-2 in bronchoalveolar lavage fluid by ELISA; assay type: in vivo, BALB/c mice; conditions: for MIP-2: BALF; for % inhibition of MIP-2: vs COPD group
# Protocol: as §1, §3
# [3] = test system: total inflammatory cells in bronchoalveolar lavage fluid; assay: COPD mouse model (LPS+CS): total cell count in bronchoalveolar lavage fluid; assay type: in vivo, BALB/c mice; conditions: BALF; for % inhibition of total cell: vs COPD group
# Protocol: as §1, §4
# EL-4 cells = conditions: mouse, 24 h, 10 μg/ml
# Protocol: EL-4 cells that are mouse T lymphoma cells were suspended in 10% fetal bovine serum-containing RPMI medium (Gibco) at a concentration of 5×10^4 cells/ml, and 100 μl of the cell suspension was seeded into each well of a 96-well plate and cultured for 12 hours. Next, the cell culture was treated with monoacetyldiacylglycerol (MADG) compounds at the concentrations shown in Table 1 below, and was then additionally cultured for 24 hours. Next, according to the instruction provided in a CCK-8 kit (Dojindo) capable of counting cells, 10 μl of CCK-8 solution was added to the kit and allowed to react for 30 minutes to 4 hours, and then the absorbance (OD) at 570 nm was measured. In equation 1, the negative control group indicates a cell culture treated with 0.2% DMSO. […] Cell viability (%)=[(OD 570 nm value of MADC-treated group)/(OD 570 nm value of negative control group)]×100 Equation 1
smiles,measurement,setting,value
"CCCCC/C=C\C/C=C\CCCCCCCC(=O)OC(COC(C)=O)COC(=O)CCCCCCCCCCCCCCC (stereo not shown) [EC-18, 1-palmitoyl-2-linoleoyl-3-acetylglycerol]",toxicity,[1],no-toxicity
same,CD4^+ cells (10^4),CD4+ cells; 30 mg/kg oral,308.2 ± 66.78 10^4
same,% inhibition of CD4^+ cells,CD4+ cells; 30 mg/kg oral,39.6%
same,CD4^+ cells (10^4),CD4+ cells; 60 mg/kg oral,152.8 ± 66.25 10^4
same,% inhibition of CD4^+ cells,CD4+ cells; 60 mg/kg oral,70.0%
same,TNF-α,TNF-α; 30 mg/kg oral,22.4 ± 13.98 pg/mL
same,% inhibition of TNF-α,TNF-α; 30 mg/kg oral,36.0%
same,TNF-α,TNF-α; 60 mg/kg oral,13.4 ± 5.33 pg/mL
same,% inhibition of TNF-α,TNF-α; 60 mg/kg oral,61.8%
same,Gr-1^+ neutrophils (10^4),Gr-1+ neutrophils; 30 mg/kg oral,20.0 ± 6.97 10^4
same,% inhibition of Gr-1^+ neutrophils,Gr-1+ neutrophils; 30 mg/kg oral,40.9%
same,Gr-1^+ neutrophils (10^4),Gr-1+ neutrophils; 60 mg/kg oral,12.6 ± 4.93 10^4
same,% inhibition of Gr-1^+ neutrophils,Gr-1+ neutrophils; 60 mg/kg oral,62.7%
same,CXCL-1,CXCL-1; 30 mg/kg oral,264.3 ± 79.77 pg/mL
same,% inhibition of CXCL-1,CXCL-1; 30 mg/kg oral,15.4%
same,CXCL-1,CXCL-1; 60 mg/kg oral,142.9 ± 26.99 pg/mL
same,% inhibition of CXCL-1,CXCL-1; 60 mg/kg oral,54.3%
same,Expression level of IL-4 mRNA (percentage relative to PMA-treated group),IL-4 mRNA,78.17 ± 6.26 percentage
same,Inhibition (%) of IL-4 mRNA expression,IL-4 mRNA,21.83%
same,survivability ratio of animals,sepsis animal model,increases survivability ratio of animals
same,Neutrophil,[2]; 30 mg/kg oral,no great change
same,% inhibition of neutrophil,[2]; 30 mg/kg oral,3%
same,Neutrophil,"[2]; 30 mg/kg oral, listed as EC18",196.9 ± 31.61
same,Neutrophil,[2]; 60 mg/kg oral,116.8 ± 37.43
same,% inhibition of neutrophil,[2]; 60 mg/kg oral,42%
same,MIP-2,MIP-2; 30 mg/kg oral,28.9 ± 5.72 pg/mL
same,% inhibition of MIP-2,MIP-2; 30 mg/kg oral,40.6%
same,MIP-2,MIP-2; 60 mg/kg oral,17.6 ± 4.07 pg/mL
same,% inhibition of MIP-2,MIP-2; 60 mg/kg oral,63.8%
same,Total cell (10^6),[3]; 30 mg/kg oral,81.0 ± 12.14^ 10^6
same,% inhibition of total cell,[3]; 30 mg/kg oral,15.1%
same,Total cell (10^6),[3]; 60 mg/kg oral,52.8 ± 10.41* 10^6
same,% inhibition of total cell,[3]; 60 mg/kg oral,44.8%
"CCCCC/C=C\C/C=C\CCCCCCCC(=O)OCC(COC(C)=O)OC(=O)CCCCCCCCCCCCCCC (stereo not shown) [LPAG, 1-linoeoyl-2-palmitoyl-3-acetylglycerol]",Expression level of IL-4 mRNA (percentage relative to PMA-treated group),IL-4 mRNA,61.11 ± 27.49 percentage
"CCCCC/C=C\C/C=C\CCCCCCCC(=O)OCC(COC(C)=O)OC(=O)CCCCCCCCCCCCCCCCC (stereo not shown) [LSAG, 1-linoeoyl-2-stearoyl-3-acetylglycerol]",Expression level of IL-4 mRNA (percentage relative to PMA-treated group),IL-4 mRNA,41.62 ± 17.61 percentage
"CCCCCCCC/C=C\CCCCCCCC(=O)OCC(COC(C)=O)OC(=O)CCCCCCCCCCCCCCC (stereo not shown) [OPAG, 1-oleoyl-2-palmitoyl-3-acetylglycerol]",Expression level of IL-4 mRNA (percentage relative to PMA-treated group),IL-4 mRNA,58.58 ± 21.74 percentage
same,Inhibition (%) of IL-4 mRNA expression,IL-4 mRNA,41.42%
"CCCCCCCC/C=C\CCCCCCCC(=O)OCC(COC(C)=O)OC(=O)CCCCCCCCCCCCCCCCC (stereo not shown) [OSAG, 1-oleoyl-2-stearoyl-3-acetylglycerol]",Expression level of IL-4 mRNA (percentage relative to PMA-treated group),IL-4 mRNA,55.84 ± 25.77 percentage
same,Inhibition (%) of IL-4 mRNA expression,IL-4 mRNA,44.16%
"CCCCCCCC/C=C\CCCCCCCC(=O)OC(COC(C)=O)COC(=O)CCCCCCCCCCCCCCC (stereo not shown) [POAG, 1-palmitoyl-2-oleoyl-3-acetylglycerol]","EL-4 cell viability (%, mean ± SD)",EL-4 cells,106.39 ± 1.19%
same,Expression level of IL-4 mRNA (percentage relative to PMA-treated group),IL-4 mRNA,75.47 ± 13.15 percentage
same,Inhibition (%) of IL-4 mRNA expression,IL-4 mRNA,24.53%
"CCCCCCCCCCCCCCCC(=O)OCC(COC(C)=O)OC(=O)CCCCCCCCCCCCCCC (stereo not shown) [PPAG, 1-palmitoyl-2-palmitoyl-3-acetylglycerol]",Expression level of IL-4 mRNA (percentage relative to PMA-treated group),IL-4 mRNA,48.62 ± 19.38 percentage
same,Inhibition (%) of IL-4 mRNA expression,IL-4 mRNA,51.38%
"CCCCCCCCCCCCCCCCCC(=O)OC(COC(C)=O)COC(=O)CCCCCCCCCCCCCCC (stereo not shown) [PSAG, 1-palmitoyl-2-stearoyl-3-acetylglycerol]",Expression level of IL-4 mRNA (percentage relative to PMA-treated group),IL-4 mRNA,70.49 ± 17.78 percentage
same,Inhibition (%) of IL-4 mRNA expression,IL-4 mRNA,29.51%
